SMILES strings stand for the structures.

Type in all cases: in vivo, C57BL/6J male mice
Experiment [1] deals with MK801-treated mice. Kind of experiment: Open field task, MK801-induced hyper-locomotion. The note with it: for effect on MK-801 induced hyper-locomotion activity (travel distance, open field): 60 minutes. How it is done:
(§1) All C57BL/6J male mice were purchased from Laboratory Animal Center of the College of Medicine of National Taiwan University. The mice were group housed (3-5 mice per cage) with food and water available ad libitum in polysulfone ventilated cages (Alternative Design, AR, USA) in the animal rooms of the Psychology Department of National Taiwan University. The colony was maintained on a 12/12-h light/dark cycle at the temperature of 22±2° C. and all behavioral studies were performed during dark cycle. All animals used in this study were adult mice (at least 2.5 months of age). All animal procedures were performed according to the protocols approved by Animal Care and Use Committee of National Taiwan University.
(§2) MK801, also known as dizocilpine, is an antagonist of NMDA receptor. Mice in Groups 2-6 were received an acute administration of MK-801 (a NMDA receptor antagonist, dissolved in normal saline, 0.1 or 0.2 mg/kg, i.p.) 20 min prior to behavioral tests. Mice in Groups 3-6 were received an oral gavage of N-methylglycine or lithium N-methylglycine, respectively (dissolved in PBS) 15 min prior to MK801 administration. The […] molarities of lithium N-methylglycine (300 mg/kg and 1000 mg/kg) were equal to those of N-methylglycine (278 mg/kg and 927 mg/kg), respectively.
(§3) Two cohorts ([…]) of mice were used in the present study, the cohort 1 (48 mice) were sequentially tested with open field (for MK801-induced hyper-locomotion) and pre-pulse inhibition (for sensor-motor gap function) tasks. The mice in cohort 2 (34 mice) were sequentially tested with Barnes maze (spatial learning and memory) task.
The open field task is a common measure of novel environment-induced exploratory behavior and general activity in both mice and rats. In the present study, the mice were placed in a Plexiglas cage (37.5 cm×21.5 cm×18 cm) under 50-65 lux light intensity, and their spontaneous locomotor activity was measured for 60 minutes using the EthoVision video tracking system (Noldus Information Technology, the Netherlands). The travel distance of each mouse was measured as an index of locomotion activity.

Experiment [2] relates to MK801-treated mice. Kind of experiment: Pre-pulse inhibition task, sensorimotor gating. As for the experimental part: as §1
MK801, also known as dizocilpine, is an antagonist of NMDA receptor. Mice in Groups 2-6 were received an acute administration of MK-801 (a NMDA receptor antagonist, dissolved in normal saline, 0.1 or 0.2 mg/kg, i.p.) 20 min prior to behavioral tests. […]
Pre-pulse inhibition was used as an index of sensorimotor gating function using SR-LAB startle apparatus (San Diego Instruments, San Diego, Calif., USA). […] The percentage of pre-pulse inhibition was evaluated by the following formula: % PPI=100×[(PA score)−(pp-P score)]/(PA score), where the PA score was the average of the PA value in the middle blocks.

Experiment [3] concerns MK801-treated mice. In words: Barnes maze task, spatial learning and memory. The note with it: MK-801 0.2 mg/kg i.p. How it is done:
as §1, §2, §3
Mice were tested in a Barnes maze to examine spatial learning and memory as described previously (Barnes, 1979). This Barnes maze paradigm has been commonly examined in mouse models of CNS disorders, including, but not limited to, schizophrenia, depression, obsessive compulsive disorder, post-traumatic stress disorder, addiction disorders, Alzheimer's disease, frontotemporal dementia, Parkinson's disease, Duchenne muscular dystrophy, stroke, and Fragile X syndrome (see Cook et al., 2014; Gotz and Ittner, 2008; Hendriksen and Vles, 2008; Conklin et al., 2000; Song et al., 2006; Lai et al., 2014; Vasterling et al., 2002; Hyman, 2005; Schaar et al., 2010; Santos et al., 2014; Zhu et al., 2007; Deckersbach et al., 2000). The testing apparatus was an elevated (50 cm above the floor) circular Plexiglas plate (100 cm in diameter) with 20 holes (7 cm in diameter, 7 cm between holes) evenly spaced around the perimeter. Mice were trained on the plate to identify an escape box (25×8×6 cm) hidden behind the target hole, which was designated as an analog to the hidden platform in the Morris water maze task. The location of the target hole was selected for a given mouse but randomized across mice. Mice were initially placed in the center of the plate covered by an opaque cylinder, and the cylinder was removed 10 s after the beginning of the trial with both an aversive tone (440 Hz, 85 dB) and light (100 lux) switched on. […] The spatial memory was measured by the “probe test.” All the training trials and the probe tests were videotaped for 3 min, and then the escape latency for the training trials and the percentage of time in different quadrants (target, left, right, and opposite) during the probe test were analyzed. […]

Setting [4] is: MK-801 0.1 or 0.2 mg/kg i.p. 20 min prior to test.

With `C[C@]12N[C@H](Cc3ccccc31)c1ccccc12` [MK-801, dizocilpine, reference compound], the “locomotion in the open field test compared to the control group” value in experiment [1] (setting [4]) is on record as “induced the hyper-locomotion”. Moreover, in experiment [2] (setting [4]), the “sensorimotor gating function in the pre-pulse inhibition test compared to the control group” value was “induced the sensorimotor gating function deficit”. For the same compound, in experiment [3], the “learning ability and memory in the Barnes maze task compared to the control group” value is “poor learning ability and memory deficit”.
For the compound `CNCC(=O)O` [N-methylglycine, reference compound], the “effect on MK-801 induced hyper-locomotion activity (travel distance, open field)” value in experiment [1] (927 mg/kg oral gavage 15 min prior to MK801 i.p.) is on record as “marginally effective”. For the same compound, the “memory phase (probe test) after MK-801 induced memory deficit” value in experiment [3] (dose not stated) is recorded as “not effective”.
With `CNCC(=O)O.[Li]` [lithium N-methylglycine], in experiment [1] (300 mg/kg and 1000 mg/kg oral gavage + MK-801), the “dose dependence of effect on MK-801 induced hyper-locomotion” value is reported as “Dose-dependent effect”. For the same compound, the “effect on MK-801 induced hyper-locomotion activity (travel distance, open field)” value in experiment [1] (300 mg/kg oral gavage 15 min prior to MK801 i.p.) and in experiment [1] (1000 mg/kg oral gavage 15 min prior to MK801 i.p.) was “effective” throughout. Also, the “reducing hyperactivity induced by MK-801, compared with N-methylglycine” value in experiment [1] (equal molarities: 300/1000 mg/kg vs 278/927 mg/kg) is “much more effective than N-methylglycine”. For the same compound, the “effect on MK-801 induced deficit in pre-pulse inhibition (% PPI)” value in experiment [2] (300 mg/kg and 1000 mg/kg oral gavage + MK801, prepulse 78, 82, 90 dB, especially at 90 dB) is reported as “alleviated”. Besides, the “learning phase (escape latency in training trials) after MK-801 induced learning deficit” value in experiment [3] (1000 mg/kg oral gavage) is recorded as “enhances the learning”. For the same compound, in experiment [3], the “recovery of memory deficit induced by MK-801, compared with N-methylglycine” value was “much superior as compared with N-methylglycine”. Moreover, the “memory phase (time in target zone, probe test) after MK-801 induced memory deficit” value in experiment [3] (high dose (1000 mg/kg) oral gavage) is recorded as “completely ameliorated the memory deficit”.

Values taken from patent publication US11278509B2, “Lithium salts of N-substituted glycine compounds and uses thereof” (SyneuRx International (Taiwan) Corp., priority 2017, dated 2022).
